Read-outs that look alike come from different tables or passages of the source.
What was measured:
[1] = system: acetic acid-induced writhing in mice; assay: acetic acid-induced writhing in mice (analgesic activity); type: in vivo, male ddY strain mice; conditions: po
Experimental: An analgesic activity was evaluated by the method of acetic acid-induced writhing in mice [R. Koster et al., Federation Proc., 18, 412 (1959)]. Ten male ddY strain mice weighing 20~25 g were used in each group. Test compounds suspended in 2.5% acacia were administered p.o. to the mice. One hour later, the mice were injected i.p. with 0.6% acetic acid in a volume of 0.1 ml/10 g body weight. The number of writhes in each of mice was counted for 20 minutes after the injection of the acetic acid. Percent inhibition was calculated by the following equation. [formula]

[2] = system: carrageenan-induced paw edema in rats; assay: carrageenan-induced paw edema in rats (acute anti-inflammatory activity); type: in vivo, male Wistar strain rats; conditions: po; for inhibition in vivo at 50 mg/kg / inhibition in vivo at 100 mg/kg: rat, p.o.; for inhibition in vivo at 5 mg/kg: Rattus norvegicus
Experimental: (1) An acute anti-inflammatory activity was evaluated by the method of carrageenan-induced paw edema in rats [C. A. Winter et al., Proc. Soc. […] Six male Wistar strain rats weighing 150~180 g were used in each group. […] The volume of each paw edema was measured 3 and 5 hours after the injection of carrageenan. Percent edema inhibition was calculated by the following equation. [formula]

[3] = system: yeast-induced fever in rats; assay: yeast-induced fever in rats (antipyretic activity); type: in vivo, male Wistar strain rats; conditions: po; for inhibition in vivo at 100 mg/kg / inhibition in vivo at 50 mg/kg: rat, p.o.; for inhibition in vivo at 5 mg/kg: Rattus norvegicus
Experimental: Five male Wistar strain rats weighing 150~180 g were used in each group. A 20% Baker's yeast suspension in 0.9% NaCl was injected s.c. into the dorsal region of rats in a volume of 1 ml/100 g body weight. […] The rectal temperature was determined with a thermometer, 1, 3 and 5 hours after the administration of test compounds. Percent inhibition was calculated by the following equation. [formula]

[4] = toxicity test in mice (LD50); conditions: in vivo, po; mouse, 14 days observation
Experimental: Female ICR strain mice weighing 20~25 g in groups of six each were used for toxicity tests. Test compounds suspended in 2.5% acacia were administered p.o. to the mice. The animals were observed daily for 14 days after the administration. The LD50 values were estimated from mortality (No. of dead mice/No. of mice used).

[5] = system: paper disk-induced granuloma in rats; assay: paper disk-induced granuloma in rats (sub-chronic anti-inflammatory activity); type: in vivo, male Wistar strain rats; conditions: rat, p.o. once daily for 7 days
Experimental: Six male Wistar strain rats weighing 150~180 g were used in each group. Each paper disk (29±1 mg) was implanted s.c. into the bilateral area of the scapula of rats under anesthesia with amobarbital sodium. […] The rats were killed on day 7, at which time the paper disks with surrounding granulomatous tissues were removed and dried to constant weight overnight, and weighed. Percent inhibition was calculated by the following equation. [formula]

[6] = system: adjuvant-induced arthritis in rats; assay: adjuvant-induced arthritis in rats (chronic anti-inflammatory activity); type: in vivo, male Sprague-Dawley strain rats; conditions: rat, p.o. once daily
Experimental: (3) A chronic anti-inflammatory activity was evaluated by the method of adjuvant-induced arthritis in rats [D. T. Walz et al., J. Pharmacol. and Exp. Ther., 178, 223 (1971)]. Eight male Sprague-Dawley strain rats weighing 190~230 g were used in each group. Into the left hind paw of rats was injected i.d. 0.5 mg of Mycobacterium butyricum suspended in 0.05 ml of paraffin oil. Test compounds suspended in 2.5% acacia were administered p.o. once daily for 21 days, starting on the day of the injection of an adjuvant (day 0). Paw volumes of adjuvant-injected and uninjected feet were measured on day 14 and on day 21. Percent inhibition was calculated by the following equation. [formula]

[7] = Mus musculus, read-out: Inhibition (writhing)
[8] = 3 hours after carrageenan, read-out: Percent edema inhibition, 3 hours
[9] = 5 hours after carrageenan, read-out: Percent edema inhibition, 5 hours
[10] = mouse, p.o., 100 mg/kg, 1 hour before acetic acid i.p., read-out: Inhibition (writhing)
[11] = 1 hour after administration, read-out: Inhibition (fever), 1 hour
[12] = 3 hours after administration, read-out: Inhibition (fever), 3 hours
[13] = 5 hours after administration, read-out: Inhibition (fever), 5 hours

| Compound | inhibition in vivo at 50 mg/kg [2, 8] [%] | inhibition in vivo at 50 mg/kg [2, 9] [%] | inhibition in vivo at 100 mg/kg [1, 10] [%] | inhibition in vivo at 100 mg/kg [3, 11] [%] | inhibition in vivo at 100 mg/kg [3, 12] [%] | inhibition in vivo at 100 mg/kg [3, 13] [%] | LD50 at 336 h [4] [mg/kg] | further results |
| --- | --- | --- | --- | --- | --- | --- | --- | --- |
| CC(=O)Oc1ccccc1C(=O)O [Aspirin, reference compound] |  |  |  |  |  |  |  | inhibition in vivo at 100 mg/kg [1, 7]: 38% |
| CC(C)(C)c1cc(C=C(CCO)C(=O)O)cc(C(C)(C)C)c1O [Compound I, β-Carboxy-β-(2-hydroxyethyl)-3,5-di-tert-butyl-4-hydroxystyrene] | 44.6 | 41.6 | 74.5 | 53.1 | 98.9 | 70.3 | > 1000 |  |
| COC(=O)C(=Cc1cc(C(C)(C)C)c(O)c(C(C)(C)C)c1)CCO [Compound II, β-Methoxycarbonyl-β-(2-hydroxyethyl)-3,5-di-tert-butyl-4-hydroxystyrene] | 52.1 | 41.7 | 79.8 | 42.5 | 64.5 | 59.7 | > 1000 |  |
| CCC(=Cc1cc(C(C)(C)C)c(O)c(C(C)(C)C)c1)C(=O)O [Compound III, β-Carboxy-β-ethyl-3,5-di-tert-butyl-4-hydroxystyrene] | 12.1 | 18.3 | 28.2 | 14.6 | 31.8 | 19.5 | > 1000 |  |
| CCOC(=O)C(=Cc1cc(C(C)(C)C)c(O)c(C(C)(C)C)c1)C(C)=O [Compound IV, β-Ethoxycarbonyl-β-acetyl-3,5-di-tert-butyl-4-hydroxystyrene] | 30.3 | 28.4 | 56.9 | 23 | 40.9 | 41.6 | > 1000 |  |
| CC(C)(C)c1cc(C=C(C#N)C(N)=O)cc(C(C)(C)C)c1O [Compound IX, β-Carbamoyl-β-cyano-3,5-di-tert-butyl-4-hydroxystyrene] | 40.8 | 34.2 | 50.7 | 35.4 | 77.3 | 87 | > 1000 | Inhibition (granuloma) ([5]; 25 mg/kg/day): 27.0%; Inhibition (granuloma) ([5]; 100 mg/kg/day): 25.0%; Inhibition, injected foot, Day 14 ([6]; 12.5 mg/kg/day): 33.3%; Inhibition, injected foot, Day 21 ([6]; 12.5 mg/kg/day): 46.1%; Inhibition, uninjected foot, Day 14 ([6]; 12.5 mg/kg/day): 70.3%; Inhibition, uninjected foot, Day 21 ([6]; 12.5 mg/kg/day): 42.6%; Inhibition, injected foot, Day 14 ([6]; 50 mg/kg/day): 31.6%; Inhibition, injected foot, Day 21 ([6]; 50 mg/kg/day): 29.6%; Inhibition, uninjected foot, Day 14 ([6]; 50 mg/kg/day): 40.5%; Inhibition, uninjected foot, Day 21 ([6]; 50 mg/kg/day): 42.6% |
| CC(=O)C(C)=Cc1cc(C(C)(C)C)c(O)c(C(C)(C)C)c1 [Compound VI, β-Acetyl-β-methyl-3,5-di-tert-butyl-4-hydroxystyrene] | 32.5 | 20.7 | 47.8 | 38.1 | 45.5 | 41.6 | > 1000 |  |
| CC(C)(C)c1cc(C=CC(=O)c2ccccc2)cc(C(C)(C)C)c1O [Compound VII, β-Benzoyl-3,5-di-tert-butyl-4-hydroxystyrene] | 16.9 | 19.7 | 33 | 15.9 | 27.7 | 21.4 | > 1000 |  |
| CC(C)(C)c1cc(C=CC(N)=O)cc(C(C)(C)C)c1O [Compound VIII, β-Carbamoyl-3,5-di-tert-butyl-4-hydroxystyrene] | 17.6 | 14.6 | 25.8 | 19.9 | 25.9 | 16.9 | > 1000 |  |
| CC(C)(C)c1cc(C=C[N+](=O)[O-])cc(C(C)(C)C)c1O [Compound X, β-Nitro-3,5-di-tert-butyl-4-hydroxystyrene] | 11 | 17.3 |  | 18.6 | 30.5 | 23.4 | > 1000 | inhibition in vivo at 100 mg/kg [1, 7]: 24.4% |
| CC(C)(C)c1cc(C=C(C#N)S(C)(=O)=O)cc(C(C)(C)C)c1O [Compound XI, β-Methylsulfonyl-β-cyano-3,5-di-tert-butyl-4-hydroxystyrene] | 35.1 | 18.3 |  |  |  |  | 250 to 500 | inhibition in vivo at 50 mg/kg ([1]; mouse, p.o., 50 mg/kg, 1 hour before acetic acid i.p.): 31.6%; inhibition in vivo at 50 mg/kg [3, 11]: 23.2%; inhibition in vivo at 50 mg/kg [3, 12]: 31.2%; inhibition in vivo at 50 mg/kg [3, 13]: 19.9% |
| CC(C)Cc1ccc(C(C)C(=O)O)cc1 (centres unmarked) [Ibuprofen, reference compound] |  |  |  |  |  |  |  | Inhibition, injected foot, Day 14 ([6]; 12.5 mg/kg/day): -2.6%; Inhibition, injected foot, Day 21 ([6]; 12.5 mg/kg/day): -17.4%; Inhibition, uninjected foot, Day 14 ([6]; 12.5 mg/kg/day): 13.5%; Inhibition, uninjected foot, Day 21 ([6]; 12.5 mg/kg/day): -7.4%; Inhibition, injected foot, Day 14 ([6]; 50 mg/kg/day): -1.7%; Inhibition, injected foot, Day 21 ([6]; 50 mg/kg/day): 28.7%; Inhibition, uninjected foot, Day 14 ([6]; 50 mg/kg/day): 32.4%; Inhibition, uninjected foot, Day 21 ([6]; 50 mg/kg/day): 44.4% |
| COc1ccc2c(c1)c(CC(=O)O)c(C)n2C(=O)c1ccc(Cl)cc1 [Indomethacin, reference compound] |  |  |  |  |  |  |  | inhibition in vivo at 5 mg/kg ([2]; 3 h, read-out: Percent edema inhibition, 3 hours): 32.8%; inhibition in vivo at 5 mg/kg ([2]; 5 h, read-out: Percent edema inhibition, 5 hours): 39.2%; Inhibition (granuloma) ([5]; 1.25 mg/kg/day): 14.0%; Inhibition (granuloma) ([5]; 5 mg/kg/day): 25.5%; inhibition in vivo at 5 mg/kg [1, 7]: 62.7%; inhibition in vivo at 5 mg/kg ([3]; 1 h, read-out: Inhibition (fever), 1 hour): 35.4%; inhibition in vivo at 5 mg/kg ([3]; 3 h, read-out: Inhibition (fever), 3 hours): 56.4%; inhibition in vivo at 5 mg/kg ([3]; 5 h, read-out: Inhibition (fever), 5 hours): 66.2% |
| CCCCC1C(=O)N(c2ccccc2)N(c2ccccc2)C1=O [Phenylbutazone, reference compound] |  |  |  |  |  |  |  | inhibition in vivo at 100 mg/kg [2, 8]: 23.6%; inhibition in vivo at 100 mg/kg [2, 9]: 28.9%; Inhibition (granuloma) ([5]; 25 mg/kg/day): 5.6%; Inhibition (granuloma) ([5]; 100 mg/kg/day): 24.2% |
